Reference: the supplement of paper PMC10307832

How the values were obtained:
Assay in all cases: relative viability (nuclei count vs DMSO), 5 days (fraction); higher = more cells survive
IPA-3 + Bortezomib = compound: C1=CC=C2C(=C1)C=CC(=C2SSC3=C(C=CC4=CC=CC=C43)O)O [IPA-3] + CC(C)C[C@H](NC(=O)[C@H](Cc1ccccc1)NC(=O)c1cnccn1)B(O)O [Bortezomib] (partner 0.002 µM)
How it was run: (§1)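 Cells from lung cancer lines were seeded into 1536-well plates and, one day later, dosed by pin tool. Treatments were either a single drug or a fixed dose of an anchor drug with five library-drug doses (not always all listed) in √10 steps. After 5 days, nuclei were stained in a one-step fixation (final 0.05% Triton X-100, 1% formaldehyde, 1 ug/ml Hoechst) and counted on 4× images, and relative viability is the treated-to-vehicle nuclei ratio, as the median of duplicate plates.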

Doramapimod + Bortezomib = compound: Cc1ccc(-n2nc(C(C)(C)C)cc2NC(=O)Nc2ccc(OCCN3CCOCC3)c3ccccc23)cc1 [Doramapimod] + CC(C)C[C@H](NC(=O)[C@H](Cc1ccccc1)NC(=O)c1cnccn1)B(O)O [Bortezomib] (partner 0.002 µM)
How it was run: as §1

Doramapimod + Crizotinib = compound: Cc1ccc(-n2nc(C(C)(C)C)cc2NC(=O)Nc2ccc(OCCN3CCOCC3)c3ccccc23)cc1 [Doramapimod] + C[C@@H](Oc1cc(-c2cnn(C3CCNCC3)c2)cnc1N)c1c(Cl)ccc(F)c1Cl [Crizotinib] (partner 1 µM)
How it was run: as §1

Doramapimod + Dasatinib = compound: Cc1ccc(-n2nc(C(C)(C)C)cc2NC(=O)Nc2ccc(OCCN3CCOCC3)c3ccccc23)cc1 [Doramapimod] + Cc1nc(Nc2ncc(C(=O)Nc3c(C)cccc3Cl)s2)cc(N2CCN(CCO)CC2)n1 [Dasatinib] (partner 0.075 µM)
How it was run: as §1

Row | Cell Line | relative viability (IPA-3 + Bortezomib; first compound 0.2 µM) | relative viability (IPA-3 + Bortezomib; first compound 0.6325 µM) | relative viability (IPA-3 + Bortezomib; first compound 2 µM) | relative viability (IPA-3 + Bortezomib; first compound 6.325 µM) | relative viability (IPA-3 + Bortezomib; first compound 20 µM) | relative viability (Doramapimod + Bortezomib; first compound 0.02 µM) | relative viability (Doramapimod + Bortezomib; first compound 0.06325 µM) | relative viability (Doramapimod + Bortezomib; first compound 0.2 µM) | relative viability (Doramapimod + Bortezomib; first compound 0.6325 µM) | relative viability (Doramapimod + Bortezomib; first compound 2 µM) | relative viability (Doramapimod + Crizotinib; first compound 0.02 µM) | relative viability (Doramapimod + Crizotinib; first compound 0.06325 µM) | relative viability (Doramapimod + Crizotinib; first compound 0.2 µM) | relative viability (Doramapimod + Crizotinib; first compound 0.6325 µM) | relative viability (Doramapimod + Crizotinib; first compound 2 µM) | relative viability (Doramapimod + Dasatinib; first compound 0.02 µM) | relative viability (Doramapimod + Dasatinib; first compound 0.06325 µM) | relative viability (Doramapimod + Dasatinib; first compound 0.2 µM) | relative viability (Doramapimod + Dasatinib; first compound 0.6325 µM) | relative viability (Doramapimod + Dasatinib; first compound 2 µM)
1 | NCI-H1563 | 1.03 | 0.689 | 0.801 | 0.996 | 0.846 | 0.871 | 0.88 | 0.993 | 1.17 | 0.873 | 0.977 | 0.917 | 0.859 | 0.893 | 0.612 | 0.437 | 0.478 | 0.44 | 0.82 | 0.421
2 | LXF-289 | 1.03 | 0.954 | 1.04 | 1.04 | 1.1 | 1.01 | 1.02 | 1.03 | 1.02 | 0.907 | 0.839 | 0.91 | 0.799 | 0.793 | 0.757 | 0.229 | 0.216 | 0.207 | 0.252 | 0.247
3 | LU99A | 1.23 | 1.07 | 1.28 | 1.04 | 1.06 | 1.03 | 1.15 | 1.12 | 1.15 | 0.922 | 0.562 | 0.541 | 0.533 | 0.585 | 0.442 | 0.488 | 0.498 | 0.413 | 0.612 | 0.552
4 | PC-14 | 1.09 | 0.79 | 0.914 | 0.805 | 1.04 | 0.968 | 0.845 | 0.778 | 1.01 | 0.81 | 0.896 | 0.913 | 0.906 | 0.855 | 0.853 | 0.282 | 0.274 | 0.28 | 0.341 | 0.243
5 | NCI-H2085 | 1.19 | 0.99 | 1.01 | 0.937 | 1.27 | 1.03 | 1 | 0.952 | 1.06 | 0.945 | 0.86 | 0.871 | 0.851 | 0.95 | 0.655 | 0.253 | 0.252 | 0.221 | 0.28 | 0.201
6 | HCC-78 | 0.624 | 0.359 | 0.555 | 0.479 | 0.675 | 0.334 | 0.49 | 0.432 | 0.642 | 0.457 | 0.356 | 0.364 | 0.336 | 0.399 | 0.358 | 0.359 | 0.431 | 0.364 | 0.382 | 0.304
7 | NCI-H2126 | 1.19 | 1.11 | 1.13 | 1.11 | 1.19 | 1.2 | 1.14 | 1.11 | 1.16 | 1.07 | 0.966 | 1.06 | 1.06 | 1.11 | 1.05 | 0.59 | 0.661 | 0.577 | 0.544 | 0.497
8 | H3255 | 0.818 | 0.709 | 0.601 | 0.754 | 0.846 | 0.788 | 0.883 | 0.833 | 0.619 | 0.668 | 0.919 | 0.785 | 0.893 | 0.851 | 0.852 | 0.296 | 0.56 | 0.414 | 0.314 | 0.351
9 | HCC-15 | 1.34 | 0.99 | 0.838 | 1.02 | 1.21 | 1.02 | 1.05 | 1.04 | 0.801 | 0.907 | 0.836 | 0.731 | 0.838 | 0.887 | 0.718 | 0.56 | 0.598 | 0.634 |  | 0.595
10 | NCI-H661 | 0.972 | 0.779 | 0.915 | 0.967 | 0.897 | 0.793 | 0.794 | 0.719 | 0.942 | 0.667 | 1.15 | 1.07 | 1 | 0.964 | 1.03 | 0.703 | 0.855 | 1.04 | 1.19 | 0.909
11 | NCI-H2009 | 1.27 | 0.95 | 1.09 | 0.943 | 0.715 | 1.08 | 1.06 | 1.18 | 0.246 | 0.962 | 1.04 | 1.2 | 1.18 | 1.08 | 0.988 | 0.345 | 0.382 | 0.422 | 0.529 | 0.297
12 | ChaGo-K-1 | 1.03 | 1.1 | 0.861 | 1.08 | 1.31 | 1.04 | 1.29 | 1.29 |  | 0.646 | 1.15 | 1.16 | 1.17 |  | 1.11 | 0.51 | 0.583 | 0.526 | 0.566 | 0.586
13 | COR-L23 | 1.12 | 0.946 | 1.06 | 0.939 | 0.802 | 1.12 | 0.914 | 0.962 | 0.997 | 0.969 | 0.705 | 0.573 | 0.571 | 0.651 | 0.667 | 0.527 | 0.554 | 0.5 | 0.545 | 0.513
14 | EMC-BAC-2 | 1.16 | 1.11 | 1.04 | 1.04 | 1.22 | 1.12 | 1.12 | 1.03 | 1.15 | 0.961 | 0.716 | 0.758 | 0.792 | 0.771 | 0.699 | 0.451 | 0.279 | 0.297 | 0.419 | 0.283
15 | LCLC-103H | 1.13 | 1.06 | 1.17 | 1.17 | 1.18 | 1.19 | 0.986 | 1.04 | 1.2 | 1.03 | 1.05 | 1.06 | 1.08 | 1.06 | 0.944 | 0.451 | 0.488 | 0.374 | 0.448 | 0.44
16 | SW 1573 | 1.18 | 1.04 | 1.36 | 1.13 | 1.25 | 0.944 | 0.927 | 0.813 | 0.764 | 0.875 | 0.827 | 0.613 | 0.646 | 0.75 | 0.743 | 0.461 | 0.394 | 0.588 | 0.685 | 0.411
